How the values were obtained:
[1] = molecular target: Cannabinoid receptor 2 (Homo sapiens) (UniProt P34972); experiment: SafetyScreen: CB2 Human Cannabinoid GPCR Binding Agonist Radioligand LeadHunter Assay, catalogue number: 37; details: Test compound concentration 10.0 uM
[2] = molecular target: D(1A) dopamine receptor (Homo sapiens) (UniProt P21728); experiment: SafetyScreen: D1 Human Dopamine GPCR Binding Antagonist Radioligand LeadHunter Assay, catalogue number: 44; details: Test compound concentration 10.0 uM
[3] = molecular target: T1, Endothelin-1 receptor (Homo sapiens) (UniProt P25101); experiment: SafetyScreen: ETA Human Endothelin GPCR Binding Agonist Radioligand LeadHunter Assay, catalogue number: 54; details: Test compound concentration 10.0 uM
T1 sequence (whole entry): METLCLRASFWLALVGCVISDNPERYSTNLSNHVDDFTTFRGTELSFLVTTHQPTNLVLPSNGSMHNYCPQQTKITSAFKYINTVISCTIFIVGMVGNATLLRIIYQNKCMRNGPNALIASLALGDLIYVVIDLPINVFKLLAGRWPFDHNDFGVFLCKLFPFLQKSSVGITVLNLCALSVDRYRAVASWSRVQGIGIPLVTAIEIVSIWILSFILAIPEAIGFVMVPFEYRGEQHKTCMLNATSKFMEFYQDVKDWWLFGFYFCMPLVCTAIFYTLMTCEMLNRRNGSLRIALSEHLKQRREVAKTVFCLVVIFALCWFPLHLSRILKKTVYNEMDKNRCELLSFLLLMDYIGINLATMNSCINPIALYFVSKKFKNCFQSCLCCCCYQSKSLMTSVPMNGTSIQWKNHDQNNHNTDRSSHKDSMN

[4] = molecular target: Histamine H1 receptor (Homo sapiens) (UniProt P35367); experiment: SafetyScreen: H1 Human Histamine GPCR Binding Antagonist Radioligand LeadHunter Assay, catalogue number: 870; details: Test compound concentration 10.0 uM
[5] = molecular target: T2, Muscarinic acetylcholine receptor M1 (Homo sapiens) (UniProt P11229); experiment: SafetyScreen: M1 Human Acetylcholine (Muscarinic) GPCR Binding Antagonist Radioligand LeadHunter Assay, catalogue number: 91; details: Test compound concentration 10.0 uM
T2 sequence (whole entry): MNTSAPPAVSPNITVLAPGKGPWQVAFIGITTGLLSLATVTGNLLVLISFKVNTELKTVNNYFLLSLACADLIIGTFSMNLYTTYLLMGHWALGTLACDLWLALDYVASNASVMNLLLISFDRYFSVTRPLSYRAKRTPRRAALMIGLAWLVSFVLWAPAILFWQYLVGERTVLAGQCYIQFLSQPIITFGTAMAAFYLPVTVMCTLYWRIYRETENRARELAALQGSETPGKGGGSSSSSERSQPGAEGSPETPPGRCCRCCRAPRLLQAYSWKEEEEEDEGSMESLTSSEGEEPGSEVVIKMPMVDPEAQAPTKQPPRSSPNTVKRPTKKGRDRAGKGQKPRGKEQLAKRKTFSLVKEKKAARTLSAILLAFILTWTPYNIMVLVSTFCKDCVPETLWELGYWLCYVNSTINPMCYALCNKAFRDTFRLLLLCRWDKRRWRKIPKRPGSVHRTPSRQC

[6] = molecular target: Neuronal acetylcholine receptor; alpha4/beta2 (Homo sapiens) (UniProt P17787+P43681); experiment: SafetyScreen: nAChR (alpha4/beta2) Human Ion Channel Binding Agonist Radioligand LeadHunter Assay, catalogue number: 3029; assay type: protein-complex assay; details: Test compound concentration 10.0 uM
[7] = molecular target: Delta-type opioid receptor (Homo sapiens) (UniProt P41143); experiment: SafetyScreen: delta (DOP) Human Opioid GPCR Binding Agonist Radioligand LeadHunter Assay, catalogue number: 114; details: Test compound concentration 10.0 uM
[8] = molecular target: T3, 5-hydroxytryptamine receptor 1A (Homo sapiens) (UniProt P08908); experiment: SafetyScreen: 5-HT1A Human Serotonin GPCR Binding Agonist Radioligand LeadHunter Assay, catalogue number: 131; details: Test compound concentration 10.0 uM
T3 sequence (whole entry): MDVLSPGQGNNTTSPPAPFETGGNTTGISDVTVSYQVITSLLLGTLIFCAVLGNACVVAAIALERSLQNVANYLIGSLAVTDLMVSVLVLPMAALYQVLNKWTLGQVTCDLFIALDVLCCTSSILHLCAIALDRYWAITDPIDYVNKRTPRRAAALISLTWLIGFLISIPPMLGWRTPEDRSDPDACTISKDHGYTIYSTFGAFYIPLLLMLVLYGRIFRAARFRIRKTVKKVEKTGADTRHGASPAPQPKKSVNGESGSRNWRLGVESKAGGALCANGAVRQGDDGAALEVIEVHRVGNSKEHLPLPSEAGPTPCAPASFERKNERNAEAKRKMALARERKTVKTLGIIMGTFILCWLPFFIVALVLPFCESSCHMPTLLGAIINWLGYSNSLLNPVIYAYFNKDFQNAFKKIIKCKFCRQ

[9] = molecular target: T4, Glucocorticoid receptor (Homo sapiens) (UniProt P04150); experiment: SafetyScreen: GR Human Glucocorticoid NHR Binding Agonist Radioligand LeadHunter Assay, catalogue number: 469; details: Test compound concentration 10.0 uM
T4 sequence (whole entry): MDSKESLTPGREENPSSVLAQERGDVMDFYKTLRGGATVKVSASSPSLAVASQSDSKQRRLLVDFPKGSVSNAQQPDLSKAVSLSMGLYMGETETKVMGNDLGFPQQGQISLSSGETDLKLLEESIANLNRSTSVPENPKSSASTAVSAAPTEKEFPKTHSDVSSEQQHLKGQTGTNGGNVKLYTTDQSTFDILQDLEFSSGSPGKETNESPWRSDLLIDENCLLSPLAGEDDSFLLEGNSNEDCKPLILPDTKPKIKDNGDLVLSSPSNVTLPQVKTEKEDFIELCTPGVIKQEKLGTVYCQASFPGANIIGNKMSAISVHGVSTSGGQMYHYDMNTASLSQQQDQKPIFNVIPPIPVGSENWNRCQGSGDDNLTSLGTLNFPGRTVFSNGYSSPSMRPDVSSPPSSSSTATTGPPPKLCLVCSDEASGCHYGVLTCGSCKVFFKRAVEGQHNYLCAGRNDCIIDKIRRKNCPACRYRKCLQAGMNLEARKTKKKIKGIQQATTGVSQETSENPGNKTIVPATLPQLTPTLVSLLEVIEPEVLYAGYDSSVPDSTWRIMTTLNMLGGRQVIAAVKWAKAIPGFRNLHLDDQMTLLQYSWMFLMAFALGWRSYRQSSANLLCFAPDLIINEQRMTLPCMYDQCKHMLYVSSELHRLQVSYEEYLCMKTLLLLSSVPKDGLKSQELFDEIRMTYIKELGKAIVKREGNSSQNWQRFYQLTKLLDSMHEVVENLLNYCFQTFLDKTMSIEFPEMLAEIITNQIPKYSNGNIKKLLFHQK

[10] = molecular target: Voltage-gated L-type calcium channel (Rattus norvegicus, UniProt P22002+Q02485+P27732); experiment: SafetyScreen: Cav1.2 (L-type) Rat Calcium Ion Channel Binding (Dihydropyridine Site) LeadHunter Assay, catalogue number: 161; assay type: protein assay; details: at 10 µM, test compound concentration 10 uM
[11] = molecular target: Sodium-dependent serotonin transporter (Homo sapiens) (UniProt P31645); experiment: SafetyScreen: SERT Human Serotonin Transporter Binding Antagonist Radioligand LeadHunter Assay, catalogue number: 439; details: Test compound concentration 10.0 uM
[12] = molecular target: Muscarinic acetylcholine receptor M3 (Homo sapiens) (UniProt P20309); experiment: SafetyScreen: M3 Human Acetylcholine (Muscarinic) GPCR Binding Antagonist Radioligand LeadHunter Assay, catalogue number: 95; details: Test compound concentration 10.0 uM
Muscarinic acetylcholine receptor M3 (Homo sapiens), sequence (P20309 whole entry, looked up): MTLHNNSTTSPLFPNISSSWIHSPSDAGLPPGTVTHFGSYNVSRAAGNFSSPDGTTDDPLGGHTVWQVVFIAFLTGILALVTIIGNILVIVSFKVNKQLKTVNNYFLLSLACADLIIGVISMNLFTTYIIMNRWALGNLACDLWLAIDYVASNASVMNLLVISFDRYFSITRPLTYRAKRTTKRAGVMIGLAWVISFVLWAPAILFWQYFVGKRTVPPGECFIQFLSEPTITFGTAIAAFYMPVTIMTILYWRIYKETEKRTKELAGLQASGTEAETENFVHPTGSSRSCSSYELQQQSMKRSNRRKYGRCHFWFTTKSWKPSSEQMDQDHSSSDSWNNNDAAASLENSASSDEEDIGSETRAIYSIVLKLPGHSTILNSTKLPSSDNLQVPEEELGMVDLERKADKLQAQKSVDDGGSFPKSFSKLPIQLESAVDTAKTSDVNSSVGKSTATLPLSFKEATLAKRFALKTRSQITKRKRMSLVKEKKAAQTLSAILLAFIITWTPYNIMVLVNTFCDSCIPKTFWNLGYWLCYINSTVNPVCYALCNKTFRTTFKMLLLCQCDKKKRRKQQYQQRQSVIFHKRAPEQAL

Delta-type opioid receptor (Homo sapiens), sequence (P41143 whole entry): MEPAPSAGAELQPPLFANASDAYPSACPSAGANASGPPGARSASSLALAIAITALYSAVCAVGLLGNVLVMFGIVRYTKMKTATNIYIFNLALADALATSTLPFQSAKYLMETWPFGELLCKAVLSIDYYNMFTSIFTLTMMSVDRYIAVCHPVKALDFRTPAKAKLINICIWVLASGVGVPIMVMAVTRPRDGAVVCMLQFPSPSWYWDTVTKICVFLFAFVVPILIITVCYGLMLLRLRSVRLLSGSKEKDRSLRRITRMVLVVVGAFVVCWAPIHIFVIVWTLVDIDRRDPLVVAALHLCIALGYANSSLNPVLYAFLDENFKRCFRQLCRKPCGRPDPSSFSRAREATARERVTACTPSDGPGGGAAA
Histamine H1 receptor (Homo sapiens), sequence (P35367 whole entry): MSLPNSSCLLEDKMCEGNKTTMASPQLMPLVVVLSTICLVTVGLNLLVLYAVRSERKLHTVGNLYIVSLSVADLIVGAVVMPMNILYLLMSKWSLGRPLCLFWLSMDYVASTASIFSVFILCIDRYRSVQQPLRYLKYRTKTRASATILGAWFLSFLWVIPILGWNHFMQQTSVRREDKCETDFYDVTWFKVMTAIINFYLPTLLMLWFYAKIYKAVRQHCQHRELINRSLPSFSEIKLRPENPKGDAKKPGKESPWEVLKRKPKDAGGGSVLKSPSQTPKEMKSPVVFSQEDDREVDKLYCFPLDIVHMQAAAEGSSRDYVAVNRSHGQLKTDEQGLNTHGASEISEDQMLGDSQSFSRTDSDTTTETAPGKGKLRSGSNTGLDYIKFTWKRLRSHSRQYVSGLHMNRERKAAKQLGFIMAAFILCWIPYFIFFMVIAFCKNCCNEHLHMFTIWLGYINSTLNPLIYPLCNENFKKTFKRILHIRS
D(1A) dopamine receptor (Homo sapiens), sequence (P21728 whole entry): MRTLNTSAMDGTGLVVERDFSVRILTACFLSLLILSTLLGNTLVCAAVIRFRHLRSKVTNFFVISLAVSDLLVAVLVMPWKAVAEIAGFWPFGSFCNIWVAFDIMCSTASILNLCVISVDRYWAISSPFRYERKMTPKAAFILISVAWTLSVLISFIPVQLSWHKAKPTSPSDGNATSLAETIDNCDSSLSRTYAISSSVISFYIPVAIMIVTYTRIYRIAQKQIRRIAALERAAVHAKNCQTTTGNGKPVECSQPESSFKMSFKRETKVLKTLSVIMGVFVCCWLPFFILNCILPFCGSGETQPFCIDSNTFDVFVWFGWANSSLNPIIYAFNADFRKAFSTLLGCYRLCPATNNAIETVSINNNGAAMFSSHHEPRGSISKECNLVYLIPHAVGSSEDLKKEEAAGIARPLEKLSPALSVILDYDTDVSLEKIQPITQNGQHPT
Cannabinoid receptor 2 (Homo sapiens), sequence (P34972 whole entry): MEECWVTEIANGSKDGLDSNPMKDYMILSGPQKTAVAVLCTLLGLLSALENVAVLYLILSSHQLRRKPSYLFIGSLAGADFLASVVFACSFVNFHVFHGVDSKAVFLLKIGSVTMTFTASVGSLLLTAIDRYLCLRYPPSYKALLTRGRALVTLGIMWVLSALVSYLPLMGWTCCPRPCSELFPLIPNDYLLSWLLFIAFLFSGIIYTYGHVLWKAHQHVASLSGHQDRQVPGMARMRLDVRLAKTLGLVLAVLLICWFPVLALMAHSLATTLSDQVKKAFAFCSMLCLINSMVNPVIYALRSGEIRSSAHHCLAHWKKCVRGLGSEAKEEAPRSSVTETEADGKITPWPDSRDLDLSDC
Sodium-dependent serotonin transporter (Homo sapiens), sequence (P31645 whole entry, looked up): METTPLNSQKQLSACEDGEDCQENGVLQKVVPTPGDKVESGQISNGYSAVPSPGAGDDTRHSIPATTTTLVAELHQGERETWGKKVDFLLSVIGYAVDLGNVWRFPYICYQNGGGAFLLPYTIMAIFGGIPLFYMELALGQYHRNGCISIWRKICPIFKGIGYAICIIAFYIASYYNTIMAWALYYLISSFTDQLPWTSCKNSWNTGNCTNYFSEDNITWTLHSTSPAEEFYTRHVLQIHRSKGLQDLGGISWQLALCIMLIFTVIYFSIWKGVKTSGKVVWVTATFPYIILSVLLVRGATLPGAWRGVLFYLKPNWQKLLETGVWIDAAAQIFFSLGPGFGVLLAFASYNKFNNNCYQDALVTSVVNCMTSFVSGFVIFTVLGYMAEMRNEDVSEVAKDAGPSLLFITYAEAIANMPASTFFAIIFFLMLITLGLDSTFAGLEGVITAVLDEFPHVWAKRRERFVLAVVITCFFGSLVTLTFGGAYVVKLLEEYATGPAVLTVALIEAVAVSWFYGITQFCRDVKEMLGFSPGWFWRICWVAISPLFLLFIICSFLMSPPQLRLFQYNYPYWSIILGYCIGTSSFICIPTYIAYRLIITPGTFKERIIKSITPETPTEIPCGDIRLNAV

Row | SMILES | inhibition [1] [%] | inhibition [2] [%] | inhibition [3] [%] | inhibition [4] [%] | inhibition [5] [%] | inhibition [6] [%] | inhibition [7] [%] | inhibition [8] [%] | inhibition [9] [%] | Inhibition [10] [%] | inhibition [11] [%] | inhibition [12] [%]
1 | CC(C)[C@H](Nc1ncnc2[nH]c(-c3cnn(C)c3C#N)cc12)c1ccc2c(n1)OCCO2 | 44 | 27 | 42 | 5 | 7 | 2 | 58 | 43 | 11 | 9 | 4 | –
2 | CC(C)[C@@H](Nc1ncnc2[nH]c(-c3cnn(C)c3C#N)cc12)c1ccc2c(n1)OCCO2 | 16 | 10 | 5 | 0 | 8 | -2 | 71 | 22 | 22 | 10 | 9 | 1
3 | COc1ccc([C@H](Cc2nnn[nH]2)NC(=O)c2ncnc3[nH]ccc23)cc1 | – | – | 2 | -4 | -4 | 4 | – | 5 | 1 | -22 | -1 | –
4 | C[C@H](C(=O)O)[C@@H](NC(=O)c1ncnc2[nH]ccc12)c1ccc(Br)cc1 | -5 | -8 | -2 | -8 | -1 | 0 | – | 2 | 3 | -12 | 0 | -9
5 | CC(C)[C@@H](Nc1ncnc2[nH]c(C(=O)N[C@@H]3CCN(C)C3)cc12)c1ccc2c(c1)S(=O)(=O)CCC2 | -8 | -3 | -6 | 2 | 17 | -2 | – | 14 | 11 | -6 | 1 | -9
6 | CC(C)[C@H](Nc1ncnc2[nH]ccc12)c1ccc2c(c1)S(=O)(=O)CCC2 | – | -4 | -1 | -3 | 19 | 1 | 30 | 12 | 10 | 12 | 0 | 5
7 | CNCc1cc(-c2cc3c(N[C@@H](c4ccc5c(c4)S(=O)(=O)CCC5)C(C)C)ncnc3[nH]2)co1 | -8 | 14 | -1 | -3 | 47 | 0 | 53 | 6 | 21 | -3 | 24 | 5
8 | CNC(=O)Cn1cc(-c2cc3c(N[C@@H](c4ccc5c(c4)S(=O)(=O)CCC5)C(C)C)ncnc3[nH]2)cn1 | – | 1 | -4 | -5 | 9 | – | 7 | 13 | 5 | -1 | -3 | -9
9 | Cc1nn(C)cc1-c1cc2c(N[C@H](c3ccc4c(c3)S(=O)(=O)CCC4)C(C)C)ncnc2[nH]1 | -8 | 3 | -4 | 0 | 11 | -2 | 16 | 10 | 7 | 12 | -4 | -9
10 | Cn1ncc(-c2cc3c(N[C@@H](c4ccc5c(n4)OCCO5)C(C)(C)C)ncnc3[nH]2)c1C#N | 31 | 9 | 9 | 7 | 13 | -5 | 15 | 15 | 28 | 21 | 2 | -8

— ChEMBL document CHEMBL5442334, “ASAP - In vitro safety pharmacology profile” (2024)
